Series [1] concerns Mouse mammary cancer SC-4. The series can be described thus: Anti-tumor activity against mouse mammary cancer SC-4 in BALB/c nu/nu nude mice. Particulars: once a day, five days after start. The format is in vivo. Here is the method: Mouse mammary cancer SC-4 (8 mm^3) was subcutaneously implanted into BALB/c nu/nu nude mice (5-weeks-old, male) at ventral side using a trockar.
After the volume of the tumor reached 100-300 mm^3, UCA1064-B was subcutaneously administered near the tumor at a dose of 15 mg/kg once a day for 4 days. UCA1064-B was administered in the form of a suspension, which was prepared by triturating 10 mg of UCA1064-B with 20 μl of Tween 80 and then suspending the compound in 0.3% carboxymethyl cellulose (CMC).
For comparison, 100 mg/kg of cortisone was subcutaneously administered once a day for 5 days in a similar manner.
Five days after the start of administration, the anti-tumor activity was determined as T/C (T: the volume of the tumor of the test group, C: the volume of the tumor of the control group).

The next series has as its system BALB 3T3/H-ras cells. The series can be described thus: Growth inhibition against BALB 3T3 cells transformed by the oncogene H-ras (Giemsa staining). The series is classed as cell-based. How it is done: (B) Growth Inhibition Against BALB 3T3 Cells Transformed by the Oncogene H-Ras (Hereinafter Referred to as BALB 3T3/H-Ras Cells)
A BALB 3T3/H-ras cell suspension (3×10^4 cells/ml) prepared by suspending BALB 3T3/H-ras cells in a medium comprising DME medium (Nissui Pharmaceutical Co, Ltd.) and 10% fetal calf serum (hereinafter referred to as Medium A) was put into wells of a 96-well microtiter plate in an amount of 0.1 ml per well. After the plate was incubated at 37° C. for 20 hours in a CO2 -incubator, 0.1 ml of a sample of UCA1064-B appropriately diluted with Medium A was added to each well. The cells were further incubated at 37° C. for 72 hours in the CO2 -incubator. After the culture supernatant was removed, the residue was washed once with physiological saline and then treated with 0.1 ml of methanol for 10 minutes to fix the cells. […] After the staining solution was removed, the residue was washed once with 0.2 ml of water. Then, the dye was extracted with 0.2 ml of 0.1N hydrochloric acid and absorbance was measured at 620 nm with a microplate reader.

The next series is described as follows: Solubility. The format is physicochemical.
Series [2] has as its system Salmonella typhi ATCC9992. The series can be described thus: Antibacterial and antifungal activity, agar dilution method. The series is classed as cell-based. Conditions: Salmonella enterica, pH 7, read-out: Minimum Inhibitory Concentration (MIC). How it is done: (§1) The minimum inhibitory concentration (MIC) of UCA1064-B against various bacteria and fungi was determined by the agar dilution method using a medium (pH 7) prepared by dissolving 3 g of Bacto-Tryptone (Difco Laboratories), 3 g of meat extract, 1 g of yeast extract, 1 g of glucose and 16 g of agar in 1 liter of water.
(In general: In agar dilution the substance is mixed into plates at graded concentrations.)

The test system of series [3] is Saccharomyces cerevisiae MTU09001. Described as above. Conditions: pH 7, read-out: Minimum Inhibitory Concentration (MIC). The format is cell-based. Here is the method: as §1
The test system of series [4] is Enterococcus faecium ATCC10541. The description is as above. The series is classed as cell-based. Conditions: pH 7, read-out: Minimum Inhibitory Concentration (MIC). How it is done:
as §1

For a further series, the system named is Candida krusei MTU12041. The description is as above. The format is cell-based. Conditions: Pichia kudriavzevii, pH 7, read-out: Minimum Inhibitory Concentration (MIC). Here is the method: as §1
In series [5] the test system is Bacillus subtilis No. 10707. The description is as above. The series is classed as cell-based. Conditions: pH 7, read-out: Minimum Inhibitory Concentration (MIC). How it is done:
as §1

The test system of series [6] is Klebsiella pneumoniae ATCC10031. The series is described as above. Conditions: pH 7, read-out: Minimum Inhibitory Concentration (MIC). The series is classed as cell-based. How it is done: as §1
Series [7] relates to Staphylococcus aureus ATCC6538P. Described as above. The series is classed as cell-based. Particulars: pH 7, read-out: Minimum Inhibitory Concentration (MIC). Here is the method:
as §1

Each structure is given as a SMILES string. Converted amounts (≈) assume the structure as drawn. Bounds are passed on as bounds.

For orientation: IC50 means the concentration that gives 50% inhibition.

Turning to `C[C@]12CCC(=O)C=C1CC[C@@H]1[C@@H]2C(=O)C[C@@]2(C)[C@H]1CC[C@]2(O)C(=O)CO` [Cortisone, reference compound], the “T/C (tumor volume of test group / control group)” value in series [1] (100 mg/kg × 5, subcutaneous, **P < 0.05 (Mann-Whitney U test)) was found to be 0.39.
For the compound `CC(C)C(C)CCC(C)C1CCN=C2C3=C(CCC21C)C1(C)CCC(O)CC1CC3` (stereo not shown) [UCA1064-B], in [1] (15 mg/kg × 4, subcutaneous near the tumor, *P < 0.01 (Mann-Whitney U test)), the “T/C (tumor volume of test group / control group)” value came to 0.49. In the series with BALB 3T3/H-ras cells (Mus musculus, BALB/3T3, 72 hours, 37° C.), the IC50 was 3.5 µg/mL (≈ 8.46 µM). In the series on BALB 3T3/H-ras cells (summary of the results shown (Tables 2 and 3)), the “growth of cancer cells (conclusion in words)” value is recorded as “inhibits the growth of cancer cells”. The Solubility result in the series “Solubility” (alcohol, acetone, ethyl acetate and chloroform) was “soluble in alcohol, acetone, ethyl acetate and chloroform”; in “Solubility” (water and hexane), “insoluble in water and hexane”. Further, the MIC was above 100 µg/mL in [2]; 0.39 µg/mL (≈ 0.943 µM) in [3]; 40 µg/mL (≈ 96.7 µM) in series [4]; 0.78 µg/mL (≈ 1.89 µM) with Candida krusei MTU12041; 20 µg/mL (≈ 48.3 µM) in series [5]; above 100 µg/mL in series [6]. The MIC in [7] was determined as 20 µg/mL (≈ 48.3 µM).

Values taken from patent US5236929A, “Compound UCA1064-B” (Kyowa Hakko Kogyo Co., Ltd., priority 1991, dated 1993).
